Test results from article PMC6838683, “Discovery of Human Signaling Systems: Pairing Peptides to G Protein-Coupled Receptors” (Cell, 2019).
Positions of bridges follow the written chain, without caps; N, C: chain ends. Residues, ends and D or L forms follow the SMILES beside them.

Key:
[1] = target: T1, GPR68 (Homo sapiens, UniProt Q15743); assay: GloSensor cAMP assay (Gs), allosteric operational model fitting; type: cell-based; design: expressed in transfected cells; host or cells: HEK293T, transient (PEI), co-transfected with GloSensor cAMP plasmid
Experimental: GPR68-mediated cAMP signaling was measured using GloSensor cAMP assays as published previously ([Huang et al., 2015], [Yu et al., 2019]) with modifications as indicated below. Calcium- and magnesium-free HBSS was supplemented with different organic buffer reagents for different pH solutions, 20 mM 2-(N-morpholino)ethanesulfonic acid (MES, Alfa Aesar) for pH 6.00 – 6.70, 20 mM 4-(2-hydroxyethyl)-1-piperazineethanesulfonic acid (HEPES, Fisher) for pH 6.80 – 8.20, and 20 mM (tris(hydroxymethyl)methylamino)propanesulfonic acid (TAPS) for pH 8.30 – 8.60. The phosphodiesterase (PDE) inhibitor Ro 20-1724 (10 μM final, Cayman Chemical) was included in pH buffers to eliminate potential effect of PDE […]. HEK293T cells were transfected with a modified polyethylenimine (PEI, Polysciences) transfection method ([Longo et al., 2013]). For a 15-cm dish of HEK293T cells with 25 mL growth medium, 8 μg receptor DNA and 8 μg GloSensor DNA (Promega) were mixed in 1 mL of Opti-MEM medium followed by addition of 80 μL PEI reagents. The mixture was added to cells after 20 min incubation at room temperature. Overnight transfected cells were plated in poly-L-lysine (Sigma) coated 384-well white clear bottom plates (Greiner Bio-One, #781098) using DMEM (Corning) + 1% dialyzed FBS (Omega Scientific) for at least 6 h (up to 24 h). Cells were removed of medium before receiving 20 μL/well of 3.5 mM luciferin (Goldbio) prepared in assay buffer (HBSS, 20 mM TAPS, pH 8.40, 10 μM Ro 20-1724) for 1 h at 37°C. Luciferin loading solutions were removed and premixed drug solutions at desired pH conditions were added to cells (25 μL/well). Luminescence was measured 25-30 min after drug application. Results were normalized (basal and maximum responses in the absence of modulator were set to be 0 and 100%) and pooled for analysis using GraphPad Prism.
All of the other parameters, including allosteric affinity cooperativity (α), allosteric modulator binding affinity KB, orthosteric agonist (protons) efficacy τA, system maximal response, and slope factor n were all globally shared for all datasets for each modulator. […] We therefore used an allosteric index, log(αβ/KB) ([Kenakin, 2017a]), which contains both allosteric binding affinity and cooperativity, to quantify the overall allosteric activity.
Target sequence in this assay (Q15743 whole entry): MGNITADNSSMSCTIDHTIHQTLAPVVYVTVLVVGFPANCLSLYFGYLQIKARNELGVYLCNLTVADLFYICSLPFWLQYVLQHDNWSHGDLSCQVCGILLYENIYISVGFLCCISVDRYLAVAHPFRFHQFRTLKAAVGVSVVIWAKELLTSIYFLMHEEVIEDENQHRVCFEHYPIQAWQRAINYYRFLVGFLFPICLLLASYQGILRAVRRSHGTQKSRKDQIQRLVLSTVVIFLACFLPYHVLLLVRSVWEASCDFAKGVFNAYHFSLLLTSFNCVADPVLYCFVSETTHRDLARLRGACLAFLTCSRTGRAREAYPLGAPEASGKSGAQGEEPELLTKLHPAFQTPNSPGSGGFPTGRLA

[2] = test system: GPR68; assay: β-arrestin recruitment (Tango); type: cell-based, human
Experimental: The peptide library was additionally screened against 120 GPCR targets in parallel, including all available orphan receptors and 27 known class A peptide receptors using the Tango assay platform ([Kroeze et al., 2015]). Briefly, HTLA cells (a HEK293 cell line stably expressing a tTA-dependent luciferase reporter and a β-arrestin2-TEV fusion gene) were plated 10,000 cells/well in poly-L-lysine–coated clear-bottom white 384-well plates in DMEM supplemented with 10% FBS, 100 U/ml penicillin and 100 μg/ml streptomycin, 2 μg/ml puromycin and 100 μg/ml hygromycin B. 24 hr later, cells were transfected with Tango GPCR constructs using the calcium phosphate method ([Jordan et al., 1996]). The next day, culture medium was changed to DMEM + 1% dFBS and 10 μM peptides were added for overnight stimulation. Bright-Glo solution (Promega) was incubated for 15–20 min at room temperature, and luminescence was counted using a Trilux luminescence counter (Wallac).
For subsequent peptide validation experiments using Tango assays, HTLA cells were transiently transfected in 10 cm dishes with the receptor of interest using polyethylenimine (PEI) ([Longo et al., 2013]). […] Assays were performed as described above, with luminescence measured using an EnSpire 2300 Multimode plate reader (PerkinElmer). Luminescence counts were exported into Excel and were analyzed using GraphPad Prism 7.

[3] = target: T1, GPR68; assay: Dynamic mass redistribution (DMR), concentration-response; type: cell-based; design: hIL-2Ra signal peptide (N); expressed in transfected cells; conditions: GPR68, mean, SEM and n; for EC50: read-out: pEC50, DMR (AUC) (converted)
How it was run: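 Doxycycline-induced (0.1 μg/ml) SNAP-tagged receptors in TREx 293 cells, equilibrated 90 min at 22°C in HEPES-buffered HBSS, pH 7.4, with 0.1% DMSO. Peptide-evoked optical wavelength shift recorded for 60 min at 22°C, buffer/solvent corrected and quantified as area under the curve. Mean ± SEM of at least 3 independent experiments.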
Target sequence in this assay (Q15743 2-365 limits assumed): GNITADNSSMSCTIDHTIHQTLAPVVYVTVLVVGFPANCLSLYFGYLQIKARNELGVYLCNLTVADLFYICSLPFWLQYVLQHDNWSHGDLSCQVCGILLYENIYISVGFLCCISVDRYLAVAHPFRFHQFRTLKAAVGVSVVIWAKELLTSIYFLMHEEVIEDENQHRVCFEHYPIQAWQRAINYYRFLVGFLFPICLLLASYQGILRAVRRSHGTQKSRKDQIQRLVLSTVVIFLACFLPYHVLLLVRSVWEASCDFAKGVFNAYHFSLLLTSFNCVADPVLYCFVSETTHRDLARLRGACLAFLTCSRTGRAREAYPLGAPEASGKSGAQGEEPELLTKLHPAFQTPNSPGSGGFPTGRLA

[4] = GPR68, pH 7.4, tested as PAM, data from resynthesized peptide, mean, SEM and n

Compound | Emax, cAMP (fold over basal, pH 7.4) [1, 4] [fold over basal] | EC50 ([1]; GPR68, pH 7.4, tested as PAM, data from resynthesized peptide, mean, SEM and n, read-out: pEC50, cAMP (fold over basal, pH 7.4) (converted)) [nM] | Comment on response, Tango (fold over basal); Emax and pEC50 n.d. [2] | Emax, DMR (AUC) [3] | EC50 [3] [nM] | EC50 [1] [nM]
CC[C@H](C)[C@H](NC(=O)[C@H](CCCNC(=N)N)NC(=O)[C@H](C)NC(=O)CNC(=O)[C@H](CCCCN)NC(=O)[C@H](CCCNC(=N)N)NC(=O)[C@@H](NC(=O)[C@H](C)NC(=O)[C@@H]1CSSC[C@H](NC(=O)[C@H](CCSC)NC(=O)[C@@H]2CCCN2C(=O)[C@@H](NC(=O)[C@H](CCC(N)=O)NC(=O)CNC(=O)[C@@H](N)Cc2ccc(O)cc2)C(C)C)C(=O)N[C@@H](CC(=O)O)C(=O)N[C@@H](C)C(=O)NCC(=O)N[C@@H](CCC(=O)O)C(=O)N[C@@H](CCC(N)=O)C(=O)N1)C(C)C)C(N)=O [CART(42-89)_(9-28)] (H-YGQVPMCDAGEQCAVRKGARI-NH2; disulfide 7-13; N-terminus assumed) | 25.2 | 4570 | No response | 944453.3 | 1050 | 
CC(C)C[C@H](NC(=O)[C@@H]1CCCN1C(=O)[C@H](Cc1ccccc1)NC(=O)[C@H](C)NC(=O)[C@H](CCC(=O)O)NC(=O)[C@H](C)NC(=O)[C@H](CO)NC(=O)[C@H](CCC(=O)O)NC(=O)[C@H](CC(N)=O)NC(=O)[C@H](CCC(=O)O)NC(=O)[C@H](C)NC(=O)[C@@H](NC(=O)[C@H](CC(N)=O)NC(=O)[C@@H]1CCCN1C(=O)[C@H](Cc1ccc(O)cc1)NC(=O)[C@@H](NC(=O)[C@H](CCCCN)NC(=O)[C@@H](NC(=O)[C@@H]1CCCN1C(=O)[C@H](CCCNC(=N)N)NC(=O)[C@@H](N)CCCNC(=N)N)C(C)C)C(C)C)C(C)C)C(=O)N[C@@H](CCC(=O)O)C(=O)N[C@@H](Cc1ccccc1)C(=O)O [Corticotropin_(17-40)] (H-RRPVKVYPNVAENESAEAFPLEF-OH; N-terminus and C-terminus assumed) | 24.2 |  | No response | 781397.0 | 1290 | 7410
